# In paper PMC6471177 (Pharmaceutics, 2019):
# Where two headings read alike, the source gives them in different places.
# Assays:
# [1] = Pharmacokinetics of intravenous docetaxel with oral LC478 in rats; format: in vivo, Sprague–Dawley rats; details: for Vd: read-out: Vss
# Protocol: For the intravenous study, rats were divided into three groups according to LC478 doses (0, 30, and 100 mg/kg LC478, respectively). […] To prevent blood clotting, 0.3 mL of 0.9% NaCl-injectable solution containing heparin (20 U/mL) was flushed into each cannula immediately after each blood sampling. […] At this time, each rat was sacrificed by withdrawing blood via a heart puncture, and then the entire gastrointestinal tract (including its contents and feces) was extracted and transferred into a beaker. […] A 100 μL aliquot of the supernatant was collected from each beaker.
# in vivo = details: for Funabs (true unabsorbed fraction) / absorbed fraction in the gastrointestinal tract: 24 h
# From the text: Male Sprague–Dawley rats at 6–9 weeks old (weighing 200–260 g) were purchased from Charles River Company Korea (Orient, Seoul, Korea). […] All rats were maintained in the same conditions as a reported method.
# For the oral study, after overnight fasting with free access to water, rats were divided into three subgroups according to the doses of LC478 administered, which were the same as in the intravenous study. […] Other procedures were followed to the intravenous study.
# Based on the standard methods, we calculated the following pharmacokinetic parameters using non-compartmental analysis (WinNonlin®; Professional Edition version 2.1; Pharsight, Mountain View, CA, USA): The total area under the plasma concentration–time curve from time zero to last blood sampling time (AUClast) or time infinity (AUCinf) by log-linear trapezoidal extrapolation method, terminal half-life, time-averaged total body, renal, and non-renal clearances (CL, CLR, and CLNR, respectively), mean residence time (MRT), apparent volume of distribution at a steady state (Vss), apparent oral clearance (CL/F), and apparent volume of distribution during elimination (Vz/F). We directly read the peak plasma concentration (Cmax) and time to reach Cmax (Tmax) from the experimental data.
# The absorbed fraction of oral dose (Fabs), absolute bioavailability (F), and relative bioavailability (Frel) were calculated by the following equations. (1) F (%)=AUCinf, p.o/AUCinf, i.v×100 (2) Frel (%)=AUCinf with LC478/AUCinf without LC478×100 (3) GI24 h, p.o/100=(1−Fabs)+(F/100×GI24 h, i.v./100)
# [2] = Disappearance of docetaxel in rat hepatic microsomes with LC478; format: in vitro ADME; details: hepatic microsomes
# Protocol: (§1) The hepatic and intestinal microsomes were prepared based on a similar reported method.
# (§2) Adding 0.1 M phosphate buffer (pH 7.4) adjusted the total volume as 0.5 mL, and then the components were incubated at 37 °C using a thermomixer at 500 opm. After incubation of 15 and 30 min for the hepatic and intestinal microsomes, respectively, 1 mL of acetonitrile with 5 µg/mL of paclitaxel as an internal standard added to terminate the reaction.
# (§3) The unweighted kinetic data from rat hepatic and intestinal microsomes were fitted using a single-site Michaelis–Menten Equation V = Vmax × [S]/(Km + [S])(4) where [S] is the substrate concentration, Vmax is maximal velocity, and Km is substrate concentration for half-maximal velocity. The CLint was calculated by dividing the Vmax by the Km.
# [3] = Disappearance of docetaxel in rat intestinal microsomes with LC478; format: in vitro ADME; details: intestinal microsomes
# Protocol: as §1, §2, §3
# [4] = Rat plasma protein binding of docetaxel by equilibrium dialysis; format: in vitro ADME; details: equilibrium dialysis
# Protocol: A 1 mL of the plasma was dialyzed against 1 mL of isotonic Sørensen phosphate buffer (pH 7.4) containing 3% dextran (w/v) in a dialysis cell (Spectrum Medical Industries, Laguna Hills, CA, USA) using a Spectra/Por 4 membrane (mol. wt. cutoff 12−14 KDa; Spectrum Medical Industries, USA).
# [5] = cited from earlier work
# [6] = male, Sprague-Dawley, rat, plasma, iv, 20 mg/kg, rats, docetaxel 20 mg/kg intravenous, with 0 mg/kg LC478
# [7] = male, Sprague-Dawley, rat, plasma, iv, 20 mg/kg, rats, docetaxel 20 mg/kg intravenous, with 30 mg/kg oral LC478
# [8] = male, Sprague-Dawley, rat, plasma, iv, 20 mg/kg, rats, docetaxel 20 mg/kg intravenous, with 100 mg/kg oral LC478
# [9] = rats, docetaxel 20 mg/kg intravenous, with 0 mg/kg LC478
# [10] = rats, docetaxel 20 mg/kg intravenous, with 30 mg/kg oral LC478
# [11] = rats, docetaxel 20 mg/kg intravenous, with 100 mg/kg oral LC478
# [12] = male, Sprague-Dawley, rat, in vivo, po, 20 mg/kg
# [13] = male, Sprague-Dawley, rat, in vivo, po, 30 mg/kg
# [14] = male, Sprague-Dawley, rat, in vivo, po, 100 mg/kg
compound,measurement,setting,value
CC(=O)O[C@@]12CO[C@@H]1C[C@H](O)[C@@]1(C)C(=O)[C@H](O)C3=C(C)[C@@H](OC(=O)[C@H](O)[C@@H](NC(=O)OC(C)(C)C)c4ccccc4)C[C@@](O)([C@@H](OC(=O)c4ccccc4)[C@H]21)C3(C)C [docetaxel],Ae0–24 h,[1]; bound over all LC478 groups,less than 1.56 % of dose
same,contribution of CLR to CL,[1]; bound over all LC478 groups,less than 1.56%
same,Ae0–24 h smaller by,"[1]; intravenous docetaxel, 100 mg/kg LC478 vs 0 mg/kg LC478",31.1%
same,Ae0–24 h smaller by,"[1]; intravenous docetaxel, 100 mg/kg LC478 vs 30 mg/kg LC478",37.2%
same,CLR slower by,"[1]; intravenous docetaxel, 100 mg/kg LC478 vs without LC478",40%
same,GI24 h,"[1]; intravenous docetaxel, bound over all LC478 groups",less than 1.76 % of the intravenous dose
same,AUC(0-inf),[1]; [6],4420 ng·h/mL
same,AUC(0-t),[1]; [6],4220 ng·h/mL
same,CL renal,[1]; [6],1.13 ± 0.431 mL/min/kg
same,MRT,[1]; [6],57.9 min
same,clearance,[1]; [6],78.4 ± 13.1 mL/min/kg
same,Vd,[1]; [6],4.57 ± 1.03 L/kg
same,AUC(0-inf),[1]; [7],5050 ng·h/mL
same,AUC(0-t),[1]; [7],4830 ng·h/mL
same,CL renal,[1]; [7],1.06 ± 0.235 mL/min/kg
same,MRT,[1]; [7],58 min
same,clearance,[1]; [7],67.9 ± 11.7 mL/min/kg
same,half-life,"[1]; male, Sprague-Dawley, rat, plasma, iv, 20 mg/kg, rats, docetaxel 20 mg/kg intravenous, with 30 mg/kg oral LC478, read-out: Terminal half-life",144 ± 37.6 min
same,Vd,[1]; [7],4.02 ± 1.36 L/kg
same,AUC(0-inf),[1]; [8],4580 ng·h/mL
same,AUC(0-t),[1]; [8],4470 ng·h/mL
same,CL renal,[1]; [8],0.678 ± 0.253 mL/min/kg
same,MRT,[1]; [8],67.1 min
same,clearance,[1]; [8],70.4 ± 9.1 mL/min/kg
same,Vd,[1]; [8],4.91 ± 1.44 L/kg
same,Ae0–24 h,[1]; [9],1.42 ± 0.418 % of dose
same,CLNR,[1]; [9],77.2 ± 12.8 mL/min/kg
same,GI24 h,[1]; [9],0.881 ± 0.411 % of dose
same,Ae0–24 h,[1]; [10],1.56 ± 0.129 % of dose
same,CLNR,[1]; [10],66.8 ± 11.4 mL/min/kg
same,Frel,[1]; [10],114%
same,GI24 h,[1]; [10],1.01 ± 0.731 % of dose
same,Ae0–24 h,[1]; [11],0.979 ± 0.365 % of dose
same,CLNR,[1]; [11],69.7 ± 9.13 mL/min/kg
same,Frel,[1]; [11],104%
same,GI24 h,[1]; [11],1.76 ± 0.958 % of dose
same,"CLR,fu (CLR considering the free fraction in plasma)","in vivo; male, Sprague-Dawley, rat, in vivo",5.04 mL/min/kg
same,"CLR,fu (CLR considering the free fraction in plasma)","in vivo; male, Sprague-Dawley, rat, in vivo, 30 mg/kg",5.15 mL/min/kg
same,"CLR,fu (CLR considering the free fraction in plasma)","in vivo; male, Sprague-Dawley, rat, in vivo, 100 mg/kg",2.55 mL/min/kg
same,CLR,in vivo; [12],3.43 ± 1.15 mL/min/kg
same,Tmax,in vivo; [12],15 min
same,AUC(0-t),"in vivo; male, Sprague-Dawley, rat, in vivo, po, 20 mg/kg, AUClast",82.8 ng·h/mL
same,CL/F,"in vivo; male, Sprague-Dawley, rat, in vivo, po, 20 mg/kg, CL/F",3040 ± 805 mL/min/kg
same,CL renal,"in vivo; male, Sprague-Dawley, rat, in vivo, po, 20 mg/kg, CLR",3.5 ± 1.1 mL/min/kg
same,Vd/F,"in vivo; male, Sprague-Dawley, rat, in vivo, po, 20 mg/kg, Vz/F",670 ± 170 L/kg
same,Funabs (true unabsorbed fraction),in vivo; [13],36.5%
same,absorbed fraction in the gastrointestinal tract,in vivo; [13],0.635
same,F increased by,in vivo; [14],102%
same,Frel increased by,in vivo; [14],109%
same,Funabs (true unabsorbed fraction),in vivo; [14],20.0%
same,absorbed fraction in the gastrointestinal tract,in vivo; [14],0.801
same,Tmax,"in vivo; rats, docetaxel 20 mg/kg oral, with 30 mg/kg oral LC478",30 (15−30) min
same,Vmax for disappearance of docetaxel,[2]; 5 µM LC478,0.438 ± 0.0578 nmol/min/mg protein
same,Vmax for disappearance of docetaxel,[2]; 10 µM LC478,0.427 ± 0.0411 nmol/min/mg protein
same,Vmax for disappearance of docetaxel,[3]; 0 µM LC478,0.109 ± 0.0502 nmol/min/0.3 mg protein
same,Vmax for disappearance of docetaxel,[3]; 1 µM LC478,0.133 ± 0.0343 nmol/min/0.3 mg protein
same,Vmax for disappearance of docetaxel,[3]; 5 µM LC478,0.133 ± 0.0737 nmol/min/0.3 mg protein
same,Vmax for disappearance of docetaxel,[3]; 10 µM LC478,0.105 ± 0.0355 nmol/min/0.3 mg protein
same,Bound fraction to fresh rat plasma,[4]; with 0 μg/mL LC478,30.6% ± 11.5%
same,Bound fraction to fresh rat plasma,[4]; with 0.1 μg/mL LC478,33.4% ± 3.59%
same,Bound fraction to fresh rat plasma,[4]; with 10 μg/mL LC478,29.7% ± 10.1%
same,oral bioavailability,[5],less than 5 % of the oral dose
